System: Paramphistomum
Experiment: Anthelmintic activity against Paramphistomum assessed as mortality at 40 ug/ml after 1 hr relative to control
Type: functional

Structure (SMILES)	mortality at 40 µg/mL [%]
CCSc1nnc(COc2ccc3nc(NC(=O)OC)sc3c2)o1	10
COC(=O)Nc1nc2ccc(OCc3nnc(SCC(=O)c4ccc(Br)cc4)o3)cc2s1	20
C=CCSc1nnc(COc2ccc3nc(NC(=O)OC)sc3c2)o1	20
COC(=O)Nc1nc2ccc(OCc3nnc(S)n3-c3ccccc3)cc2s1	0
CCOC(=O)CSc1nnc(COc2ccc3nc(NC(=O)OC)sc3c2)o1	10
COC(=O)Nc1nc2ccc(OCc3nnc(SCc4ccccc4)o3)cc2s1	30
COC(=O)Nc1nc2ccc(OCc3nnc(SCC(=O)c4ccccc4)o3)cc2s1	10
COC(=O)Nc1nc2ccc(OCc3nnc(SC)o3)cc2s1	10
O=C(Nc1cc(Cl)cc(Cl)c1O)c1c(O)c(Cl)cc(Cl)c1Cl [OXYCLOZANIDE]	30
COC(=O)Nc1nc2ccc(OCc3nnc(SCC(=O)c4ccc(Cl)cc4)o3)cc2s1	40
COC(=O)Nc1nc2ccc(OCc3nnc(S)n3-c3ccc(C)cc3)cc2s1	0
COC(=O)Nc1nc2ccc(OCc3nnc(S)n3-c3ccc(Cl)cc3)cc2s1	10
COC(=O)Nc1nc2ccc(OCc3nnc(SC(=O)CCl)o3)cc2s1	10

System: Paramphistomum
Experiment: Anthelmintic activity against Paramphistomum assessed as mortality at 40 ug/ml after 2 hrs relative to control
Type: functional

Structure (SMILES)	mortality at 40 µg/mL [%]
CCSc1nnc(COc2ccc3nc(NC(=O)OC)sc3c2)o1	40
COC(=O)Nc1nc2ccc(OCc3nnc(SCC(=O)c4ccc(Br)cc4)o3)cc2s1	40
C=CCSc1nnc(COc2ccc3nc(NC(=O)OC)sc3c2)o1	30
COC(=O)Nc1nc2ccc(OCc3nnc(S)n3-c3ccccc3)cc2s1	0
CCOC(=O)CSc1nnc(COc2ccc3nc(NC(=O)OC)sc3c2)o1	20
COC(=O)Nc1nc2ccc(OCc3nnc(SCc4ccccc4)o3)cc2s1	30
COC(=O)Nc1nc2ccc(OCc3nnc(SCC(=O)c4ccccc4)o3)cc2s1	20
COC(=O)Nc1nc2ccc(OCc3nnc(SC)o3)cc2s1	10
O=C(Nc1cc(Cl)cc(Cl)c1O)c1c(O)c(Cl)cc(Cl)c1Cl [OXYCLOZANIDE]	70
COC(=O)Nc1nc2ccc(OCc3nnc(SCC(=O)c4ccc(Cl)cc4)o3)cc2s1	40
COC(=O)Nc1nc2ccc(OCc3nnc(S)n3-c3ccc(C)cc3)cc2s1	0
COC(=O)Nc1nc2ccc(OCc3nnc(S)n3-c3ccc(Cl)cc3)cc2s1	20
COC(=O)Nc1nc2ccc(OCc3nnc(SC(=O)CCl)o3)cc2s1	10

System: Paramphistomum
Experiment: Anthelmintic activity against Paramphistomum assessed as mortality at 40 ug/ml after 4 hrs relative to control
Type: functional

Structure (SMILES)	mortality at 40 µg/mL [%]
CCSc1nnc(COc2ccc3nc(NC(=O)OC)sc3c2)o1	50
COC(=O)Nc1nc2ccc(OCc3nnc(SCC(=O)c4ccc(Br)cc4)o3)cc2s1	60
C=CCSc1nnc(COc2ccc3nc(NC(=O)OC)sc3c2)o1	50
COC(=O)Nc1nc2ccc(OCc3nnc(S)n3-c3ccccc3)cc2s1	0
CCOC(=O)CSc1nnc(COc2ccc3nc(NC(=O)OC)sc3c2)o1	30
COC(=O)Nc1nc2ccc(OCc3nnc(SCc4ccccc4)o3)cc2s1	50
COC(=O)Nc1nc2ccc(OCc3nnc(SCC(=O)c4ccccc4)o3)cc2s1	20
COC(=O)Nc1nc2ccc(OCc3nnc(SC)o3)cc2s1	20
O=C(Nc1cc(Cl)cc(Cl)c1O)c1c(O)c(Cl)cc(Cl)c1Cl [OXYCLOZANIDE]	100
COC(=O)Nc1nc2ccc(OCc3nnc(SCC(=O)c4ccc(Cl)cc4)o3)cc2s1	40
COC(=O)Nc1nc2ccc(OCc3nnc(S)n3-c3ccc(C)cc3)cc2s1	0
COC(=O)Nc1nc2ccc(OCc3nnc(S)n3-c3ccc(Cl)cc3)cc2s1	30
COC(=O)Nc1nc2ccc(OCc3nnc(SC(=O)CCl)o3)cc2s1	20

System: Paramphistomum
Experiment: Anthelmintic activity against Paramphistomum assessed as mortality at 40 ug/ml after 6 hrs relative to control
Type: functional

Structure (SMILES)	mortality at 40 µg/mL [%]
CCSc1nnc(COc2ccc3nc(NC(=O)OC)sc3c2)o1	80
COC(=O)Nc1nc2ccc(OCc3nnc(SCC(=O)c4ccc(Br)cc4)o3)cc2s1	60
C=CCSc1nnc(COc2ccc3nc(NC(=O)OC)sc3c2)o1	70
COC(=O)Nc1nc2ccc(OCc3nnc(S)n3-c3ccccc3)cc2s1	0
CCOC(=O)CSc1nnc(COc2ccc3nc(NC(=O)OC)sc3c2)o1	30
COC(=O)Nc1nc2ccc(OCc3nnc(SCc4ccccc4)o3)cc2s1	60
COC(=O)Nc1nc2ccc(OCc3nnc(SCC(=O)c4ccccc4)o3)cc2s1	30
COC(=O)Nc1nc2ccc(OCc3nnc(SC)o3)cc2s1	20
COC(=O)Nc1nc2ccc(OCc3nnc(SCC(=O)c4ccc(Cl)cc4)o3)cc2s1	40
COC(=O)Nc1nc2ccc(OCc3nnc(S)n3-c3ccc(C)cc3)cc2s1	0
COC(=O)Nc1nc2ccc(OCc3nnc(S)n3-c3ccc(Cl)cc3)cc2s1	50
COC(=O)Nc1nc2ccc(OCc3nnc(SC(=O)CCl)o3)cc2s1	20

System: Paramphistomum
Experiment: Anthelmintic activity against Paramphistomum assessed as mortality at 80 ug/ml after 1 hr relative to control
Type: functional

Structure (SMILES)	mortality at 80 µg/mL [%]
CCSc1nnc(COc2ccc3nc(NC(=O)OC)sc3c2)o1	20
COC(=O)Nc1nc2ccc(OCc3nnc(SCC(=O)c4ccc(Br)cc4)o3)cc2s1	60
C=CCSc1nnc(COc2ccc3nc(NC(=O)OC)sc3c2)o1	20
COC(=O)Nc1nc2ccc(OCc3nnc(S)n3-c3ccccc3)cc2s1	0
CCOC(=O)CSc1nnc(COc2ccc3nc(NC(=O)OC)sc3c2)o1	20
COC(=O)Nc1nc2ccc(OCc3nnc(SCc4ccccc4)o3)cc2s1	30
COC(=O)Nc1nc2ccc(OCc3nnc(SCC(=O)c4ccccc4)o3)cc2s1	30
COC(=O)Nc1nc2ccc(OCc3nnc(SC)o3)cc2s1	10
O=C(Nc1cc(Cl)cc(Cl)c1O)c1c(O)c(Cl)cc(Cl)c1Cl [OXYCLOZANIDE]	50
COC(=O)Nc1nc2ccc(OCc3nnc(SCC(=O)c4ccc(Cl)cc4)o3)cc2s1	50
COC(=O)Nc1nc2ccc(OCc3nnc(S)n3-c3ccc(C)cc3)cc2s1	0
COC(=O)Nc1nc2ccc(OCc3nnc(S)n3-c3ccc(Cl)cc3)cc2s1	20
COC(=O)Nc1nc2ccc(OCc3nnc(SC(=O)CCl)o3)cc2s1	10

System: Paramphistomum
Experiment: Anthelmintic activity against Paramphistomum assessed as mortality at 80 ug/ml after 2 hrs relative to control
Type: functional

Structure (SMILES)	mortality at 80 µg/mL [%]
CCSc1nnc(COc2ccc3nc(NC(=O)OC)sc3c2)o1	60
COC(=O)Nc1nc2ccc(OCc3nnc(SCC(=O)c4ccc(Br)cc4)o3)cc2s1	100
C=CCSc1nnc(COc2ccc3nc(NC(=O)OC)sc3c2)o1	40
COC(=O)Nc1nc2ccc(OCc3nnc(S)n3-c3ccccc3)cc2s1	0
CCOC(=O)CSc1nnc(COc2ccc3nc(NC(=O)OC)sc3c2)o1	30
COC(=O)Nc1nc2ccc(OCc3nnc(SCc4ccccc4)o3)cc2s1	60
COC(=O)Nc1nc2ccc(OCc3nnc(SCC(=O)c4ccccc4)o3)cc2s1	40
COC(=O)Nc1nc2ccc(OCc3nnc(SC)o3)cc2s1	20
O=C(Nc1cc(Cl)cc(Cl)c1O)c1c(O)c(Cl)cc(Cl)c1Cl [OXYCLOZANIDE]	100
COC(=O)Nc1nc2ccc(OCc3nnc(SCC(=O)c4ccc(Cl)cc4)o3)cc2s1	70
COC(=O)Nc1nc2ccc(OCc3nnc(S)n3-c3ccc(C)cc3)cc2s1	0
COC(=O)Nc1nc2ccc(OCc3nnc(S)n3-c3ccc(Cl)cc3)cc2s1	20
COC(=O)Nc1nc2ccc(OCc3nnc(SC(=O)CCl)o3)cc2s1	30

System: Paramphistomum
Experiment: Anthelmintic activity against Paramphistomum assessed as mortality at 80 ug/ml after 4 hrs relative to control
Type: functional

Structure (SMILES)	mortality at 80 µg/mL [%]
CCSc1nnc(COc2ccc3nc(NC(=O)OC)sc3c2)o1	60
C=CCSc1nnc(COc2ccc3nc(NC(=O)OC)sc3c2)o1	100
COC(=O)Nc1nc2ccc(OCc3nnc(S)n3-c3ccccc3)cc2s1	0
CCOC(=O)CSc1nnc(COc2ccc3nc(NC(=O)OC)sc3c2)o1	50
COC(=O)Nc1nc2ccc(OCc3nnc(SCc4ccccc4)o3)cc2s1	90
COC(=O)Nc1nc2ccc(OCc3nnc(SCC(=O)c4ccccc4)o3)cc2s1	50
COC(=O)Nc1nc2ccc(OCc3nnc(SC)o3)cc2s1	30
COC(=O)Nc1nc2ccc(OCc3nnc(SCC(=O)c4ccc(Cl)cc4)o3)cc2s1	100
COC(=O)Nc1nc2ccc(OCc3nnc(S)n3-c3ccc(C)cc3)cc2s1	0
COC(=O)Nc1nc2ccc(OCc3nnc(S)n3-c3ccc(Cl)cc3)cc2s1	50
COC(=O)Nc1nc2ccc(OCc3nnc(SC(=O)CCl)o3)cc2s1	30

System: Paramphistomum
Experiment: Anthelmintic activity against Paramphistomum assessed as mortality at 80 ug/ml after 6 hrs relative to control
Type: functional

Structure (SMILES)	mortality at 80 µg/mL [%]
CCSc1nnc(COc2ccc3nc(NC(=O)OC)sc3c2)o1	80
COC(=O)Nc1nc2ccc(OCc3nnc(S)n3-c3ccccc3)cc2s1	0
CCOC(=O)CSc1nnc(COc2ccc3nc(NC(=O)OC)sc3c2)o1	60
COC(=O)Nc1nc2ccc(OCc3nnc(SCc4ccccc4)o3)cc2s1	100
COC(=O)Nc1nc2ccc(OCc3nnc(SCC(=O)c4ccccc4)o3)cc2s1	70
COC(=O)Nc1nc2ccc(OCc3nnc(SC)o3)cc2s1	40
COC(=O)Nc1nc2ccc(OCc3nnc(S)n3-c3ccc(C)cc3)cc2s1	0
COC(=O)Nc1nc2ccc(OCc3nnc(S)n3-c3ccc(Cl)cc3)cc2s1	80
COC(=O)Nc1nc2ccc(OCc3nnc(SC(=O)CCl)o3)cc2s1	50
